Assay results reported in paper PMC10821025, “Bioprospection of Tenellins Produced by the Entomopathogenic Fungus Beauveria neobassiana” (Journal of Fungi, 2024).
Values after ≈ are worked out from the molar mass of the structure shown.

Columns and labels:
[1] = system: mouse fibroblasts (L-929); assay: Cytotoxicity assay, L929; assay type: cell-based; details: L929 (fibroblast), 5 days of incubation
Protocol: (§1) The cytotoxicity of isolated compounds was determined as previously described over a concentration range between […] against two mammalian cell lines: mouse fibroblasts (L-929) and human endocervical adenocarcinoma (KB-3.1). […] Following 5 days of incubation, we determined the minimum concentration of the tested compounds required to achieve 50% growth inhibition, expressed as IC50 values.

[2] = system: human endocervical adenocarcinoma (KB-3.1); assay: Cytotoxicity assay, KB3.1; assay type: cell-based; details: KB3.1 (endocervical adenocarcinoma), 5 days of incubation
Protocol: as §1

[3] = system: Acinetobacter baumanii [DSM 30008]; assay: Serial dilution assay (MIC); assay type: cell-based; details: Acinetobacter baumannii, DSM30008
Protocol: (§2) All isolated compounds were assessed for their antimicrobial activity using a serial dilution assay over a concentration range from 67 to 0.5 µg/mL following the previously described protocols. In brief, the antimicrobial activity of all isolated metabolites was assessed by determining their minimum inhibitory concentration (MIC) against a range of different pathogens, including five fungal species: Candida albicans [DSM 1665], Mucor hiemalis [DSM 2656], Schizosaccharomyces pombe [DSM 70572], Rhodotorula glutinis [DSM 10134], and Wickerhamomyces anomalus [DSM 6766], as well as various Gram-positive: Staphylococcus aureus [DSM 346], Bacillus subtilis [DSM 10], Mycolicibacterium smegmatis [ATCC 700084], and Gram-negative bacteria: Acinetobacter baumanii [DSM 30008], Escherichia coli [DSM 1116], Chromobacterium violaceum [DSM 30191], and Pseudomonas aeruginosa [PA14]. In our experiments, gentamicin served as the positive control against most bacteria, while nystatin acted as the positive control against all fungi. For specific microorganisms, namely A. baumannii, B. subtilis, and M. smegmatis, ciprofloxacin, oxytetracycline, and kanamycin were used as positive controls, respectively.

[4] = system: Bacillus subtilis [DSM 10]; assay: Serial dilution assay (MIC); assay type: cell-based; details: DSM10, read-out: MIC
Protocol: as §2

[5] = system: Candida albicans [DSM 1665]; assay: Serial dilution assay (MIC); assay type: cell-based; details: DSM1665, read-out: MIC
Protocol: as §2

[6] = system: Chromobacterium violaceum [DSM 30191]; assay: Serial dilution assay (MIC); assay type: cell-based; details: DSM30191, read-out: MIC
Protocol: as §2

[7] = system: Escherichia coli [DSM 1116]; assay: Serial dilution assay (MIC); assay type: cell-based; details: DSM1116, read-out: MIC
Protocol: as §2

[8] = system: Mucor hiemalis [DSM 2656]; assay: Serial dilution assay (MIC); assay type: cell-based; details: DSM2656, read-out: MIC
Protocol: as §2

[9] = system: Mycolicibacterium smegmatis [ATCC 700084]; assay: Serial dilution assay (MIC); assay type: cell-based; details: Mycolicibacterium smegmatis, ATCC700084; Mycobacterium smegmatis; read-out: MIC
Protocol: as §2

[10] = system: Pseudomonas aeruginosa [PA14]; assay: Serial dilution assay (MIC); assay type: cell-based; details: read-out: MIC
Protocol: as §2

[11] = system: Rhodotorula glutinis [DSM 10134]; assay: Serial dilution assay (MIC); assay type: cell-based; details: DSM10134
Protocol: as §2

[12] = system: Schizosaccharomyces pombe [DSM 70572]; assay: Serial dilution assay (MIC); assay type: cell-based; details: DSM70572
Protocol: as §2

[13] = system: Staphylococcus aureus [DSM 346]; assay: Serial dilution assay (MIC); assay type: cell-based; details: DSM346, read-out: MIC
Protocol: as §2

[14] = system: Wickerhamomyces anomalus [DSM 6766]; assay: Serial dilution assay (MIC); assay type: cell-based; details: Hansenula anomala, DSM6766
Protocol: as §2

[15] = system: S. aureus (DSM 1104) biofilm formation; assay: Biofilm inhibition assay (Crystal Violet staining); assay type: cell-based, Staphylococcus aureus; details: for inhibitory activity on S. aureus biofilm formation (in words): 125–7.8 µg/mL; for Biofilm inhibition (% ± SD): S. aureus (DSM 1104); for Biofilm inhibition (% ± SD) / inhibition at 7.8 µg/mL: 7.8 µg/ml; for inhibition at 7.8 µg/mL / inhibition at 15.62 µg/mL / inhibition at 31.25 µg/mL / inhibition at 62.5 µg/mL / inhibition at 125 µg/mL: Staphylococcus aureus, DSM1104, S. aureus (DSM 1104), read-out: Biofilm inhibition (% ± SD)
Protocol: The compounds were evaluated for their ability to inhibit S. aureus (DSM 1104) biofilm formation, following the established procedure. Briefly, serially diluted compounds (125–7.8 µg/mL) were co-incubated with S. aureus in 96-well plates in CASO medium supplemented with 4% of glucose (see Supplementary Materials). Biofilm inhibition was assessed by using Crystal Violet staining after […], with microporenic acid A serving as a positive control and methanol as solvent control.
Biofilm inhibition assays were condu cted acco rding to th e methodolo g y previousl y described (Soliga et al., 2021), targeting the inhibition of biofilm formation in Staphylococcus aureus […]
S. aureus were cultured i n LB and CASO medium at 37 °C for 18 h, respect ivel y, in a shaker at 120 rpm after being thawed from a -20 °C stock solution. The culture's optical densit y at 600 nm (OD600) was measured and adjusted to a 0.1 McFarland standard in M63 minimal medium supplemented with necessar y nutrients and CASO medi um with 4% glucose for S. aureus, respectively. Microtiter plates were loaded with 150 µL of the bacterial suspension containing s eriall y diluted test compounds (7.8 -125 µg/m L) and incubated for 24 h at 37 °C. The evaluation of biofilm inhibition was performed by staining the biofilm with 0.1% cr ystal violet (CV). After staining, the plates were washed, and the biofilm dissolved in 95% ethanol. The absorbance of the dissolved biofilm was measured at 530 nm using a plat e reader. Negative control involved methanol (2.5%) while microporenic acid A at a concentration range of 7.8 to 125 µg/mL were used as the positive control for S. aureus (Chepkirui et al., 2018). All experiments were performed three times, and the standard deviation (SD) was maintained at or below 15% for S. aureus .
Differences between sam ples and the control grou p were determined b y a t wo-tailed Student’s t-test. Statistical significan ce was defined as p < 0.01. Anal ysis was carri ed out using GraphPad Prism 9® (GraphPad Software, San Diego, CA, USA). […]

[16] = system: lung cancer (A-549) cell line; assay: Cytotoxicity assay, A549; assay type: cell-based; details: Homo sapiens, 120 h; A549 (lung), 5 days of incubation; read-out: IC50
[17] = system: breast cancer (MCF-7) cell line; assay: Cytotoxicity assay, MCF-7; assay type: cell-based; details: Homo sapiens, MCF7, 120 h; MCF-7 (breast), 5 days of incubation; read-out: IC50
S. aureus = system: S. aureus; design: method as in doi:10.1016/j.phytol.2021.03.003; details: cited from earlier work
Curvularia lunata = system: Curvularia lunata; design: method as in doi:10.1016/j.phytol.2021.03.003; details: cited from earlier work

Row | Compound | IC50 ([1]; Mus musculus, L929, 120 h) | IC50 ([2]; Homo sapiens, KB 3-1, 120 h) | MIC [3] | MIC [4] | MIC [5] | MIC [6] | MIC [7] | MIC [8] | MIC [9] | MIC [10] | MIC [11] | MIC [12] | MIC [13] | MIC [14] | inhibitory activity on S. aureus biofilm formation (in words) [15] | inhibition at 7.8 µg/mL [15] | inhibition at 15.62 µg/mL [15] | inhibition at 31.25 µg/mL [15] | inhibition at 62.5 µg/mL [15] | inhibition at 125 µg/mL [15] | also measured
1 | CCC(C)/C=C(C)/C=C/C(=O)C1=C(O)[C@H]([C@H](O)c2ccc(O)cc2)NC1=O (stereo partly shown) [Compound 2, Prototenellin D] | 70.1 µM | 64.7 µM | > 67 µg/mL | > 67 µg/mL | > 67 µg/mL | > 67 µg/mL | > 67 µg/mL | > 67 µg/mL | > 67 µg/mL | > 67 µg/mL | > 67 µg/mL | > 67 µg/mL | > 67 µg/mL | > 67 µg/mL | promising activities in a dose-dependent manner | 53 ± 7% | 56 ± 8% | 80 ± 10% | 83 ± 9% | 84 ± 17% | IC50 (µM) [1]: weak or no activity; IC50 (µM) [2]: weak or no activity; Biofilm inhibition (% ± SD) ([15]; listed as prototenellin D (2)): more than 50%
2 | CCC(C)/C=C(C)/C=C/C(=O)c1c(O)c(-c2ccc(O)cc2)cn(O)c1=O (stereo not shown) [Compound 4, Tenellin] | 0.79 µM | 0.79 µM | > 67 µg/mL | 8.3 µg/mL (≈ 22.5 µM) | 66.6 µg/mL (≈ 180 µM) | > 67 µg/mL | > 67 µg/mL | 66.6 µg/mL (≈ 180 µM) | > 67 µg/mL | > 67 µg/mL | > 67 µg/mL | > 67 µg/mL | 16.6 µg/mL (≈ 44.9 µM) | > 67 µg/mL | promising activities in a dose-dependent manner | 36 ± 13% | 51 ± 19% | 73 ± 15% | 80 ± 4% | 78 ± 5% | IC50 [16]: 0.24 µM; IC50 [17]: 2 µM; Biofilm inhibition (% ± SD) ([15]; listed as tenellin (4)): ca. 30%; MIC (S. aureus): 6.25 µg/mL (≈ 16.9 µM); MIC (Curvularia lunata): 3.13 µg/mL (≈ 8.47 µM)
3 | CCC(/C=C(C)/C=C/C(=O)c1c(O)c(-c2ccc(O)cc2)cn(O)c1=O)CO (stereo not shown) [Compound 5, 15-Hydroxytenellin] | 4.9 to 6.8 µM | 4.9 to 6.8 µM | > 67 µg/mL | 66.6 µg/mL (≈ 173 µM) | > 67 µg/mL | > 67 µg/mL | > 67 µg/mL | > 67 µg/mL | > 67 µg/mL | > 67 µg/mL | > 67 µg/mL | > 67 µg/mL | 66.6 µg/mL (≈ 173 µM) | > 67 µg/mL |  |  | 47 ± 12% | 78 ± 5% | 85 ± 2% | 86 ± 1% | IC50 [1]: 6.8 µM; IC50 [2]: 6 µM; IC50 [16]: 2.6 µM; IC50 [17]: 8.1 µM
